According to patent US20090181098A1, “Hmg-Co-a Reductase Inhibitor Enhancement of Bone and Cartilage” (OsteoScreen IP, LLC, priority 2006, published 2009):

Experiments:
[1] = system: neonatal murine calvaria; assay: Neonatal murine calvarial explant culture, bone and cartilage formation; type: cell-based, mouse
Description: Four day old calvarial explant cultures were incubated with media containing scaffold material that releases 0, 0.4 or 8 μg/day. The extent of new cartilage is then quantitated by imaging analysis.
Experimental Design Four day old Swiss white pups were employed as they are generally a healthy mouse strain. Calvaria from 4-day old Swiss white mouse pup mice were dissected out and cut in half. The excised hemi-calvariae were placed on metal grids (at the surface) in 1 ml BGJ media with Fitton-Jackson modification BGJ media (Sigma) containing 0.1% BSA with glutamine. The bones are incubated at 37° C. in a 5% humidified incubator for a period of 24 h and then transferred to wells containing 1 ml media with test compounds and further incubated under the above conditions for 72-96 h. The bones are then removed, fixed in 10% buffered formalin for 24 h, decalcified in 14% EDTA overnight, embedded in paraffin and 4 μm-thick sections cut and stained with H&E.
Dosing. […] Calvaria are removed at day 7 and day 14. The media is changed every 3 days. Cartilage formation is assessed histologically.

[2] = system: osteocalcin; assay: Serum osteocalcin (sandwich ELISA) in OVX rats; type: in vivo, rat; details: dermal gel 0.01 mg/kg/day for 5 days, day 26
Description: (§1) Blood samples were obtained at the end of the five day treatment for determination of liver and muscle enzymes (alanine aminotransferase (ALT), aspartate aminotransferase (AST), alkaline phosphatase (AP), and lactic dehydrogenase (LDH) by radioimmunoassays (Esoterix, San Antonio, Tex.). Kinetic quantitative determination of […] (CPK) in serum was estimated using a kit from Stanbio Laboratory (Boerne, Tex.). The concentration of osteocalcin was measured using a sandwich ELISA assay supplied by from Biomedical Technologies Inc.

[3] = Serum liver and muscle enzymes (ALT, AST, AP, LDH, CPK) and myotoxicity after dermal lovastatin; details: for ALT / AP / AST / CPK / LDH: end of 5 day treatment
Description: as §1
Three-month old virgin female Sprague Dawley rats were purchased from Harlan Laboratories, LTD (Indianapolis, Ind.). Experiments were performed using either intact, bilaterally ovariectomized (OVX) or sham-operated (SHAM) rats with treatment starting 5 days after surgery in the latter groups. Rats were weight-matched and divided into treatment groups (n=10). Compounds were administered by daily transdermal application for 5 days only or 5 days/week for 5 weeks when specified. Animals were pair-fed throughout the experimental period and weekly body weights determined and dosage adjusted accordingly. At the completion of the experiment, animals were anesthetized with a ketamine (10 mg/ml) at a dose of 100 mg/kg body weight and euthanized by cervical dislocation.

[4] = Plasma lovastatin by mass spectroscopy after local nanobeads; type: in vivo, rat; details: any of the dosed groups, end of the experiment
Description: Plasma was taken from the rats 3 hrs after the last dose and the lovastatin was measured by mass spectroscopy.

[5] = system: ovariectomized (OVX) rats; assay: Effects of transdermal lovastatin on bone in ovariectomized rats (histomorphometry); type: in vivo, rat
Description: Following sacrifice, both femurs and tibiae were removed, cleaned of soft tissue, fixed in 10% formalin for 48 hours, and then stored in 70% ETOH and prepared for histology. Histomorphometric analysis was performed using a semiautomated Osteomeasure System (Osteometrics, Inc., Atlanta, Ga.) and digitizing pad and by following standard histomorphometric techniques. Bone volume, trabecular number, thickness and separation, cell number and dynamic parameters were determined as described previously by Parfitt et al. [Parfitt A M (1988) Bone histomorphometry: standardization of nomenclature, symbols and units. Summary of proposed system. J Bone Miner Res 4:1-5.]. Bone formation rates (BFR) and mineral apposition rates (MAR) were measured in plastic-embedded sections following demeclocycline and calcein injections (15 and 20 mg/kg/body weight respectively) given intraperitoneally at 10 and 4 days before sacrifice. Values for MAR were corrected for obliquity of the plane of section in cancellous bone. Rats were evaluated with a mouse densitometer, Piximus (GE Medical Systems); bone mineral density (BMD), calculated by dividing bone mineral content (g) by the projected bone area (cm^2), was assessed for the proximal third of the tibia at time 0 and at 5 weeks. Micro-computed tomography (μ-CT) analysis of the rat distal femur was kindly performed by Phil Salmon (Skyscan, Belgium). Bones were scanned using the Skyscan Model 1072 employing an x-ray tube voltage of 100 kV, and magnified to attain a pixel size of 10.13 μm. Data are expressed as the mean standard error (SEM). Statistical differences between groups were evaluated with one-way analysis of variance (ANOVA). […] P<0.05 were considered significant.

[6] = dermal, hydrophilic petrolatum, 1 mg/kg/day
[7] = dermal, hydrophilic petrolatum, 5 mg/kg/day
[8] = aqueous alkanolic gel, lowest dose tested

## CC[C@H](C)C(=O)O[C@H]1C[C@@H](C)C=C2C=C[C@H](C)[C@H](CC[C@@H]3C[C@@H](O)CC(=O)O3)[C@H]21 [lovastatin]
[1]; 7 days after exposure
  Bone formation in cultures of neonatal murine calvaria: stimulates bone formation
[1]; 14 days after exposure, scaffold release 0.4 and 0.8 μg/24 h
  Cartilage formation in cultures of neonatal murine calvaria: stimulate cartilage formation in a dose response fashion
[2]
  Serum osteocalcin levels: significant increase in osteocalcin levels
[3]; dermal, aqueous alkanolic gel, 0.01 to 0.5 mg/kg/day, end of treatment, sham/ovx rats
  Change in liver and muscle skeletal tissue enzymes (AST, ALT, AP, LDH, CPK): No significant changes
[3]; [6]
  ALT: 55 ± 3 μ/L
  AP: 123 ± 6 μ/L
  AST: 110 ± 4 μ/L
  CPK: 441 ± 61 μ/L
  LDH: 349 ± 47 μ/L
[3]; [7]
  ALT: 57 ± 2 μ/L
  AP: 115 ± 5 μ/L
  AST: 128 ± 7 μ/L
  CPK: 578 ± 45 μ/L
  LDH: 528 ± 67 μ/L
[3]; dermal, hydrophilic petrolatum, 1 and 5 mg/kg/day, 5 days
  Change in liver and muscle enzymes (ALT, AST, AP, LDH, CPK) vs vehicle: No changes
[3]; hydroalcoholic gel, 5 days, sham and ovx rats
  Serum creatine protein kinase (CPK), treated groups vs control: No significant changes
[3]; transdermal
  Non-myotoxic dose (50 mg/kg/day) relative to effective dose (0.01 mg/kg): 5000 fold
[3]; transdermal, doses up to 50 mg/kg/day
  Myotoxicity by CPK measurements and morphologic examination of skeletal muscles: not observed
[4]
  Plasma lovastatin: undetectable
[5]; 0.01 mg/kg transdermal vs oral dose of Mundy et al. 1999
  Effective transdermal dose as fraction of the dose required orally for an effect on bone formation: approximately 1/1000
[5]; 5 days of transdermal exposure, 0.01 mg/kg body weight
  Bone formation rates: markedly increased
[5]; [8]
  Trabecular number: significant increase in trabecular number
  Trabecular separation: significant decrease in trabecular separation
[5]; dermal 1 mg/kg/day, 5 days (FIG. 4)
  Increase in bone volume vs OVX rats treated with vehicle: 50%
[5]; dermal, 5 day administration (FIG. 6)
  Bone formation rates (BFR): significant increase
[5]; dermal, 5 days (FIG. 5)
  OVX-induced changes in trabecular thickness, number and separation: partly prevented these changes
[5]; dermal, aqueous alkanolic gel, 0.01 to 0.5 mg/kg/day for 5 days, significant at 0.01 mg/kg/day
  Bone volume by histomorphometry: increased bone volume at all the doses tested
[5]; dermal, hydroalcoholic gel, 0.01 to 0.5 mg/kg/day for 5 days, proximal tibiae, four weeks after dosing
  Increase in bone volume vs vehicle-treated OVX rats: > 40%
[5]; dermal, hydrophilic petrolatum, 5 days, even at the lowest dose (FIG. 3b)
  Increase in bone volume vs vehicle-treated OVX rats: > 50%
[5]; transdermal
  Cancellous bone connectivity (trabecular thickness, number, separation, star volume, fractal dimension, pattern factor): increased cancellous bone connectivity
